Literature values as cited in PMC9905294 (Biochemistry, 2023).

Target: Mtb Eis (Mycobacterium tuberculosis, UniProt P9WFK7)
Details: previously published value; cited from earlier work

Chain of Mtb Eis (P9WFK7 whole entry): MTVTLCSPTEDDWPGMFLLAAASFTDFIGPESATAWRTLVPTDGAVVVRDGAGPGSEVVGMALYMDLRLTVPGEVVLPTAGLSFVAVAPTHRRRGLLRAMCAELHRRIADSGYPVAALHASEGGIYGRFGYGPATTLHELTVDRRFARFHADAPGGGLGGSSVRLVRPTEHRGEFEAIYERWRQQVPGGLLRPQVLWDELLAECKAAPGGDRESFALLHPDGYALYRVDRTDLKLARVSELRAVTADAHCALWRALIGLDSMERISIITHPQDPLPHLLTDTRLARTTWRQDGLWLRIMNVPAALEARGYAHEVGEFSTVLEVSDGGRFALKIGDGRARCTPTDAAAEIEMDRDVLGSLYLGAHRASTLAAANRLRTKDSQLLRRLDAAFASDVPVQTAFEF

SMILES: [H]/N=C(\N/C(=N/[H])NCCCCCCNC(=N)NC(=N)Nc1ccc(Cl)cc1)Nc1ccc(Cl)cc1 [Chlorhexidine (CHX), Chlorhexidine]
- IC50: 670 ± 190 nM
